Measurements as given in US20240383911A1, “AZAINDAZOLE MACROCYCLE COMPOUNDS AND USES THEREOF” (BROADENBIO CO., LTD, priority 2021, published 2024).

Experiments:
HPK1 = HPK1 (Homo sapiens, UniProt Q92918); assay: HPK1 kinase activity inhibition test (ADP-Glo, luminescence); format: biochemical; settings: 2 μM ATP, 5 nM HPK1, read-out: IC50, inhibitory effects on HPK1 kinase activity
Protocol: The kinase activity of HPK1 is manifested as activity of autophosphorylation and phosphorylation of downstream substrates. In the process of autophosphorylation, additional substrates are not required, and ATP is consumed to generate ADP. The amount of the product is measured by ADP-Glo reagent and luminescence method to reflect kinase activity.
(§1) Tested compounds: compounds prepared in the Examples of this invention.
Preparation of compound stock solution: dissolve the test compound in 100% DMSO to make a 10 mM stock solution;
Preparation of 4×Kinase Reaction Buffer:
Preparation of 2×HPK1 Kinase Solution:
Preparation of 4×ATP Mixture:
Dilute the stock solution of the test compound by 5 times with 100% DMSO, make a 4-fold equal dilution in a 96-well dilution plate, add 1 μL of the compound to 49 μL of kinase reaction buffer, and shake on a microplate shaker for 20 minutes. Transfer 2 μL of 2×HPK1 kinase solution to 384 reaction plate, add 1 μL of the test compound to the 384 reaction plate (Greiner, Cat #784075), centrifuge for 1 minute (1000 rpm/min), incubate at 25° C. for 10 minutes. Transfer 1 μL of the 4×ATP mixture to a 384 reaction plate, centrifuge for 1 minute (1000 rpm/min), and incubate at 25° C. for 60 minutes. In the reaction system, the final concentration of DMSO is 0.5%. Transfer 4 μL of ADP-Glo to a 384 reaction plate, centrifuge for 1 minute (1000 rpm/min), and incubate at 25° C. for 40 minutes. Transfer 8 μL detection solution to a 384 reaction plate, centrifuge for 1 minute (1000 rpm/min), and incubate at 25° C. for 40 minutes. The […] is read using a Biotek multi-function plate reader, and the IC50 (half inhibitory concentration) of the compound is obtained using a four-coefficient nonlinear fitting formula.

Human Jurkat-E6-1 cells = assay: Detection of IL-2 production by Jurkat cells using ELISA; format: cell-based; settings: anti-CD3/anti-CD28 stimulation 24 hours, read-out: Percentage of the amount of IL-2 secreted by compound treated vs DMSO-treated cells; for activity at 0.33 µM: tested compound 0.33 μM; for activity at 1 µM: tested compound 1.0 μM
Protocol: as §1
Human Jurkat-E6-1 cells were incubated with various concentrations of tested compounds for 30 minutes in a humidified incubator at 37° C. and 5% CO2. Cells were transferred to cell culture plates pre-coated with anti-human CD3 antibody, then soluble anti-human CD28 antibody was added, and cells were stimulated for 24 hours at 37° C. and 5% CO2 in a humidified incubator. The cell culture medium was collected after centrifugation, and was then transferred to a 96-well transparent microtiter plate (Thermo) pre-coated with anti-human IL-2 antibody, incubated at room temperature for 2 hours with gently shaking, washed with washing buffer for 4 times, and then followed the ELISA MAX Deluxe Set Human IL-2 (BioLegend) kit procedures, used a microplate reader (Molecular Device, i3X) to read the GD value at 450 nm. The best standard curve was selected by the microplate reader application software, and the corresponding concentration was calculated according to the GD value of the standard. Results are expressed as a percentage (%) of the amount of IL-2 secreted by compound-treated vs DMSO-treated cells.

Chain of HPK1 (Q92918 whole entry): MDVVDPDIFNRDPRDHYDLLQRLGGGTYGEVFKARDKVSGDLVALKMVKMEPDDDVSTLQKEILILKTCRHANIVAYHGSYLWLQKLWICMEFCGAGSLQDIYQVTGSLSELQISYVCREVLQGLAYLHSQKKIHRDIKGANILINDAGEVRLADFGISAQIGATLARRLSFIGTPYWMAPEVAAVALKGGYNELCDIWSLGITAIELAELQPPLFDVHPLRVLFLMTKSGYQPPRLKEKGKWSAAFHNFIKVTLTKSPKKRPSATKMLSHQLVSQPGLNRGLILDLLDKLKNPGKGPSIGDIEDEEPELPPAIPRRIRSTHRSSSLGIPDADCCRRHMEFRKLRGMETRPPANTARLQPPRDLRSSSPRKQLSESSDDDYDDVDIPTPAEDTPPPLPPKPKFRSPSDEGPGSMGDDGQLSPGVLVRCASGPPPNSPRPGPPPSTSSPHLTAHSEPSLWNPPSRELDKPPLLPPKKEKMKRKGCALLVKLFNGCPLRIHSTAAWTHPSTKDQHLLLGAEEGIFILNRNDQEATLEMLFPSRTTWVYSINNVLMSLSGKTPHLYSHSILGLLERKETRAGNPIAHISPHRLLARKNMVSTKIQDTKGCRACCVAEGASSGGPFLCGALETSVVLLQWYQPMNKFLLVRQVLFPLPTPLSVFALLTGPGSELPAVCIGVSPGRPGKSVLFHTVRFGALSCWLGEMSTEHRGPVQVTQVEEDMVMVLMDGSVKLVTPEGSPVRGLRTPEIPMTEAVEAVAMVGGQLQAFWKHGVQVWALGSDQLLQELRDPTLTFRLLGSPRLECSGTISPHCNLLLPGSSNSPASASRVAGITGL

Row | IC50 (HPK1) | Compound | activity at 0.33 µM (Human Jurkat-E6-1 cells) | activity at 1 µM (Human Jurkat-E6-1 cells) | activity at 3 µM (Human Jurkat-E6-1 cells; tested compound 3.0 μM)
1 | ≤ 5 nM | CN1CCN(c2ccc3cc2OCCCOCc2cccc(F)c2-c2cc4c-3n[nH]c4cn2)C[C@@H]1CO [Compound 121, [(2R)-4-{17-fluoro-7,11-dioxa-20,23,24-triazapentacyclo[17.5.2.1^2,6.0^13,18.0^22,25]heptacosa-1(24),2,4,6(27),13(18),14,16,19,21,25-decaen-5-yl}-1-methylpiperazin-2-yl]methanol] | 467% | – | –
2 | ≤ 5 nM | O=C1OC[C@@H]2CN(c3ccc4cc3OCCCOCc3cccc(F)c3-c3cc5c-4n[nH]c5cn3)CCN12 [Compound 124, (8aS)-7-{17-fluoro-7,11-dioxa-20,23,24-triazapentacyclo[17.5.2.1^2,6.0^13,18.0^22,25]heptacosa-1(24),2,4,6(27),13(18),14,16,19,21,25-decaen-5-yl}-hexahydro-1H-[1,3]oxazolo[3,4-a]pyrazin-3-one] | – | 630% | –
3 | ≤ 5 nM | Fc1cccc2c1-c1cc3c(n[nH]c3cn1)-c1ccc(N3C[C@@H]4C[C@H]3CN4C3COC3)c(c1)OCCCOC2 [Compound 153, 17-fluoro-5-[(1S,4S)-5-(oxetan-3-yl)-2,5-diazabicyclo[2.2.1]heptan-2-yl]-7,11-dioxa-20,23,24-triazapentacyclo[17.5.2.1^2,6.0^13,18.0^22,25]heptacosa-1(24),2,4,6(27),13(18),14,16,19,21,25-decaene] | 369% | – | –
4 | ≤ 5 nM | O[C@@H]1COc2cc(ccc2N2CCN3CCOC[C@H]3C2)-c2n[nH]c3cnc(cc23)-c2c(F)cccc2OC1 [Compound 120, (9S)-5-[(9aR)-octahydropyrazino[2,1-c][1,4]oxazin-8-yl]-16-fluoro-7,11-dioxa-19,22,23-triazapentacyclo[16.5.2.1^2,6.0^12,17.0^21,24]hexacosa-1(23),2,4,6(26),12(17),13,15,18,20,24-decaen-9-ol] | – | 494% | –
5 | ≤ 5 nM | CN1C[C@H]2CN(c3ccc4cc3OCCCOCc3cccc(F)c3-c3cc5c-4n[nH]c5cn3)CCN2CC1=O [Compound 127, (9aR)-8-{17-fluoro-7,11-dioxa-20,23,24-triazapentacyclo[17.5.2.1^2,6.0^13,18.0^22,25]heptacosa-1(24),2,4,6(27),13(18),14,16,19,21,25-decaen-5-yl}-2-methyl-octahydro-1H-[1,4]diazino[1,2-a]pyrazin-3-one] | 475% | – | –
6 | ≤ 5 nM | CN1C[C@@H]2CN(c3ccc4cc3OCCCOCc3cccc(F)c3-c3cc5c-4n[nH]c5cn3)CCN2CC1=O [Compound 128, (9aS)-8-{17-fluoro-7,11-dioxa-20,23,24-triazapentacyclo[17.5.2.1^2,6.0^13,18.0^22,25]heptacosa-1(24),2,4,6(27),13(18),14,16,19,21,25-decaen-5-yl}-2-methyl-octahydro-1H-[1,4]diazino[1,2-a]pyrazin-3-one] | 452% | – | –
7 | 5 to 50 nM | CN1CCN(c2ccc3cc2OCCCOCc2cccc(F)c2-c2ncc4[nH]nc-3c4n2)CC1 [Compound 115, 17-fluoro-5-(4-methylpiperazin-1-yl)-7,11-dioxa-20,23,24,26-tetraazapentacyclo[17.5.2.1^2,6.0^13,18.0^22,25]heptacosa-1(24),2,4,6(27),13(18),14,16,19,21,25-decaene] | – | 263% | –

The next lines start with the molecule.

Row | Compound | IC50 (HPK1) | activity at 0.33 µM (Human Jurkat-E6-1 cells) | activity at 1 µM (Human Jurkat-E6-1 cells) | activity at 3 µM (Human Jurkat-E6-1 cells; tested compound 3.0 μM)
8 | OCCN1C2CCC1CN(c1ccc3cc1OCCCOc1cccc(F)c1-c1cc4c-3n[nH]c4cn1)C2 [Compound 145, 2-(3-{16-fluoro-7,11-dioxa-19,22,23-triazapentacyclo[16.5.2.1^2,6.0^12,17.0^21,24]hexacosa-1(23),2,4,6(26),12(17),13,15,18,20,24-decaen-5-yl}-3,8-diazabicyclo[3.2.1]octan-8-yl)ethan-1-ol] | ≤ 5 nM | – | 512% | –
9 | OC1CCN(c2ccc3cc2OCCCOCc2cccc(F)c2-c2cc4c-3n[nH]c4cn2)CC1 [Compound 107, 17-fluoro-5-(4-hydroxypiperidin-1-yl)-7,11-dioxa-20,23,24-triazapentacyclo[17.5.2.1^2,6.0^13,18.0^22,25]heptacosa-1(24),2,4,6(27),13(18),14,16,19,21,25-decaene] | ≤ 5 nM | – | 345% | –
10 | Fc1cccc2c1-c1cc3c(n[nH]c3cn1)-c1ccc(N3CCC(N4CCOCC4)CC3)c(c1)OCCCOC2 [Compound 105, 17-fluoro-5-[4-(morpholin-4-yl)piperidin-1-yl]-7,11-dioxa-20,23,24-triazapentacyclo[17.5.2.1^2,6.0^13,18.0^22,25]heptacosa-1(24),2,4,6(27),13(18),14,16,19,21,25-decaene] | ≤ 5 nM | 313% | – | –
11 | OC1(CN2CCOCC2)CCN(c2ccc3cc2OCCCOc2cccc(F)c2-c2cc4c-3n[nH]c4cn2)CC1 [Compound 113, 1-{16-fluoro-7,11-dioxa-19,22,23-triazapentacyclo[16.5.2.1^2,6.0^12,17.0^21,24]hexacosa-1(23),2,4,6(26),12(17),13,15,18,20,24-decaen-5-yl}-4-[(morpholin-4-yl)methyl]piperidin-4-ol] | 5 to 50 nM | 265% | – | –
12 | CN1CCN(C2CCN(c3ccc4cc3OCCCOc3cccc(F)c3-c3cc5c-4n[nH]c5cn3)CC2)CC1 [Compound 108, 16-fluoro-5-[4-(4-methylpiperazin-1-yl)piperidin-1-yl]-7,11-dioxa-19,22,23-triazapentacyclo[16.5.2.1^2,6.0^12,17.0^21,24]hexacosa-1(23),2,4,6(26),12(17),13,15,18,20,24-decaene] | ≤ 5 nM | 213% | – | –
13 | CN1CCN(c2ccc3cc2OCC(O)COc2cccc(F)c2-c2cc4c-3n[nH]c4cn2)CC1 (stereo not drawn) [Compound 114, 16-fluoro-5-(4-methylpiperazin-1-yl)-7,11-dioxa-19,22,23-triazapentacyclo[16.5.2.1^2,6.0^12,17.0^21,24]hexacosa-1(23),2,4,6(26),12(17),13,15,18,20,24-decaen-9-ol] | ≤ 5 nM | 239% | – | –
14 | CN1CCN(c2ccc3cc2OCCCCOc2cccc(F)c2-c2cc4c-3n[nH]c4cn2)CC1 [Compound 7, 17-fluoro-5-(4-methylpiperazin-1-yl)-7,12-dioxa-20,23,24-triazapentacyclo[17.5.2.1^2,6.0^13,18.0^22,25]heptacosa-1(24),2(27),3,5,13,15,17,19,21,25-decaene] | 5 to 50 nM | – | – | 404%
15 | CN1C2CC1CN(c1ccc3cc1OCCCOCc1cccc(F)c1-c1cc4c-3n[nH]c4cn1)C2 [Compound 116, 17-fluoro-5-{6-methyl-3,6-diazabicyclo[3.1.1]heptan-3-yl}-7,11-dioxa-20,23,24-triazapentacyclo[17.5.2.1^2,6.0^13,18.0^22,25]heptacosa-1(24),2,4,6(27),13(18),14,16,19,21,25-decaene] | ≤ 5 nM | 450% | – | –
16 | CN1CCN(c2ccc3cc2OCCCCOCc2cccc(F)c2-c2cc4c-3n[nH]c4cn2)CC1 [Compound 100, 18-fluoro-5-(4-methylpiperazin-1-yl)-7,12-dioxa-21,24,25-triazapentacyclo[18.5.2.1^2,6.0^14,19.0^23,26]octacosa-1(25),2(28),3,5,14(19),15,17,20,22,26-decaene] | 5 to 50 nM | – | 235% | –
17 | CN(C)C1(C)CCN(c2ccc3cc2OCCCOc2cccc(F)c2-c2cc4c-3n[nH]c4cn2)CC1 [Compound 110, 1-{16-fluoro-7,11-dioxa-19,22,23-triazapentacyclo[16.5.2.1^2,6.0^12,17.0^21,24]hexacosa-1(23),2,4,6(26),12(17),13,15,18,20,24-decaen-5-yl}-N,N,4-trimethylpiperidin-4-amine] | ≤ 5 nM | 222% | – | –
18 | CN(C)C1(C)CCN(c2ccc3cc2OCCCOCc2cccc(F)c2-c2cc4c-3n[nH]c4cn2)CC1 [Compound 111, 1-{17-fluoro-7,11-dioxa-20,23,24-triazapentacyclo[17.5.2.1^2,6.0^13,18.0^22,25]heptacosa-1(24),2,4,6(27),13(18),14,16,19,21,25-decaen-5-yl}-N,N,4-trimethylpiperidin-4-amine] | ≤ 5 nM | 388% | – | –
